Patent publication US6677460B1, “Aromatic carboxylic acid bicyclic sulfur compounds” (Idemitsu Kosan Company, Limited, priority 1993, dated 2004)

How the values were obtained:
Format in all cases: in vivo
[1] = tested on: velvetleaf; experiment: Upland soil treatment test (6); conditions: 100 g/hectare, 20th day after treatment; also: ranges in brackets are in %
Protocol: (§1) 90 Parts by weight of the above carrier and 10 parts by weight of each of Compounds obtained in the above Preparation Examples were uniformly pulverized and mixed to obtain herbicides. Further, for Herbicide Comparative Examples, comparative herbicides were prepared by uniformly pulverizing and mixing 90 parts by weight of the above carrier and 10 parts by weight of each of the following Compounds x, y, A, B and C.
(§2) (6) Biological Test (Upland Soil Treatment Test, Herbicide Examples 27˜42 and Comparative Example 10).
(§3) Seeds of weeds such as large crabgrass, barnyard grass, green foxtail, cocklebur , velvetleaf and slender amaranth and seeds of corn, wheat and barley were sown in 1/5,000-are Wagner pots filled with upland soil, and covered with upland soil. Then, a predetermined amount of the herbicide prepared in the above (1) was suspended in water and uniformly sprayed onto the soil surface. Thereafter, the plants were grown in the greenhouse, and on 20th day after the treatment, the herbicide was evaluated f or herbicidal efficacy.
(§4) The dosage of each herbicide is indicated as an amount of the active ingredient per hectare. Further, air-dried weight were measured and the herbicidal efficacy and the phytotoxicity to corn are shown on the basis of the ratings described below.

[2] = tested on: slender amaranth; experiment: Upland soil treatment test (6); conditions: 100 g/hectare, 20th day after treatment; also: ranges in brackets are in %
Protocol: as §1, §2, §3, §4

[3] = tested on: large crabgrass; experiment: Upland soil treatment test (6); conditions: 100 g/hectare, 20th day after treatment; also: ranges in brackets are in %
Protocol: as §1, §2, §3, §4

[4] = tested on: barnyard grass; experiment: Upland soil treatment test (6); conditions: 100 g/hectare, 20th day after treatment; also: ranges in brackets are in %
Protocol: as §1, §2, §3, §4

[5] = tested on: cocklebur; experiment: Upland soil treatment test (6); conditions: 100 g/hectare, 20th day after treatment; also: ranges in brackets are in %
Protocol: as §1, §2, §3, §4

[6] = tested on: green foxtail; experiment: Upland soil treatment test (6); conditions: 100 g/hectare, 20th day after treatment; also: ranges in brackets are in %
Protocol: as §1, §2, §3, §4

[7] = tested on: corn; experiment: Upland soil treatment test (6), phytotoxicity; conditions: 100 g/hectare, 20th day after treatment; also: ranges in brackets are in %
Protocol: as §1, §2, §3, §4

[8] = tested on: umbrella plant; experiment: Submergence soil treatment test (4); conditions: twenty days after treatment; also: ranges in brackets are in %
Protocol: as §1
(§5) (4) Biological Test (Submergence Soil Treatment Test, Herbicide Examples 5˜9 and Comparative Examples 5˜8 and Reference Example 1 and 2)
(§6) 1/15,500-are porcelain pots were filled with paddy field soil, and seeds of barnyard grass and umbrella plant were sown in a surface layer of the soil, and paddy rice at the 2-leaf stage was transplanted. Then, the weeds were treated by uniformly spraying a diluted solution of a predetermined amount of the herbicide prepared in the above (1) onto the water surface at the time of germination of the weeds, and then the pots were allowed to stand in a greenhouse while water was properly sprayed. […] The dosage of each herbicide is shown as an amount of the active ingredient per 10 areas. Further, air-dried weights were measured, and the herbicidal efficacy and the phytotoxicity to the paddy rice were shown as follows.

[9] = tested on: barnyard grass; experiment: Submergence soil treatment test (4); conditions: twenty days after treatment; also: ranges in brackets are in %
Protocol: as §1, §5, §6

[10] = tested on: paddy rice; experiment: Submergence soil treatment test (4), phytotoxicity; conditions: twenty days after treatment
Protocol: as §1, §5, §6

[11] = tested on: corn; experiment: Upland soil treatment test (5), phytotoxicity; conditions: dosage 100 g a.i./hectare, 20th day after treatment
Protocol: as §1
(§7) (5) Biological Test (Upland Soil Treatment Test, Herbicide Examples 10-26 and Comparative Example 9)
as §3, with “cocklebur,” for “cocklebur ,”, “for” for “f or”
(§8) The dosage of each herbicide is indicated as an amount of the active ingredient per hectare. Further, air-dried weight were measured, and herbicidal efficacy and the pytotoxicity to corn are shown on the basis of the ratings described below.

[12] = tested on: velvetleaf; experiment: Upland soil treatment test (5); conditions: dosage 100 g a.i./hectare, 20th day after treatment; also: ranges in brackets are in %
Protocol: as §1, §7
as §3, with “cocklebur,” for “cocklebur ,”, “for” for “f or”
as §8

[13] = tested on: slender amaranth; experiment: Upland soil treatment test (5); conditions: dosage 100 g a.i./hectare, 20th day after treatment; also: ranges in brackets are in %
Protocol: as §1, §7
as §3, with “cocklebur,” for “cocklebur ,”, “for” for “f or”
as §8

[14] = tested on: large crabgrass; experiment: Upland soil treatment test (5); conditions: dosage 100 g a.i./hectare, 20th day after treatment; also: ranges in brackets are in %
Protocol: as §1, §7
as §3, with “cocklebur,” for “cocklebur ,”, “for” for “f or”
as §8

[15] = tested on: barnyard grass; experiment: Upland soil treatment test (5); conditions: dosage 100 g a.i./hectare, 20th day after treatment; also: ranges in brackets are in %
Protocol: as §1, §7
as §3, with “cocklebur,” for “cocklebur ,”, “for” for “f or”
as §8

[16] = tested on: cocklebur; experiment: Upland soil treatment test (5); conditions: dosage 100 g a.i./hectare, 20th day after treatment; also: ranges in brackets are in %
Protocol: as §1, §7
as §3, with “cocklebur,” for “cocklebur ,”, “for” for “f or”
as §8

[17] = tested on: green foxtail; experiment: Upland soil treatment test (5); conditions: dosage 100 g a.i./hectare, 20th day after treatment; also: ranges in brackets are in %
Protocol: as §1, §7
as §3, with “cocklebur,” for “cocklebur ,”, “for” for “f or”
as §8

**Q.** `Cc1ccc(S(=O)(=O)Oc2c(C(=O)c3cc(C)c4c(c3C)C(C)(C)CCS4)c(C)nn2C)cc1` [Compound 31] was tested. Which “Herbicidal efficacy (E): velvetleaf” value [1] did it give?
**A.** 4 (1-20)

**Q.** What about the “Herbicidal efficacy (F): slender amaranth” value (from here on “Herbicidal efficacy (F)”) [2] of the same compound?
**A.** 5 (0)

**Q.** And the “Herbicidal efficacy (A): large crabgrass” value [3]?
**A.** 5 (0)

**Q.** What about the “Herbicidal efficacy (B): barnyard grass” value [4] of the same compound?
**A.** 4 (1-20)

**Q.** What about the “Herbicidal efficacy (D): cocklebur” value [5] of the same compound?
**A.** 1 (61-80)

**Q.** What about the “Herbicidal efficacy (C): green foxtail” value [6] of the same compound?
**A.** 3 (21-40)

**Q.** What about the Phytotoxicity to corn [7] of the same compound?
**A.** 0 (100)

**Q.** For `CCCS(=O)(=O)Oc1c(C(=O)c2cc(C)c3c(c2C)C(C)CCS3(=O)=O)cnn1CC` (centres unmarked) [Compound 51, 4,5,8-trimethyl-6-(1-ethyl-5-n-propanesulfonyloxypyrazol-4-yl)carbonylthiochroman-1,1-dioxide], which “Herbicidal efficacy (E): velvetleaf” value [1] is on record?
**A.** 5 (0)

**Q.** What about the “Herbicidal efficacy (F)” value [2] of the same compound?
**A.** 5 (0)

**Q.** And the “Herbicidal efficacy (A): large crabgrass” value [3]?
**A.** 5 (0)

**Q.** And the “Herbicidal efficacy (B): barnyard grass” value [4]?
**A.** 5 (0)

**Q.** What about the “Herbicidal efficacy (D): cocklebur” value [5] of the same compound?
**A.** 5 (0)

**Q.** And the “Herbicidal efficacy (C): green foxtail” value [6]?
**A.** 5 (0)

**Q.** What about the Phytotoxicity to corn [7] of the same compound?
**A.** 0 (100)

**Q.** `CCn1ncc(C(=O)c2ccc(S(C)(=O)=O)c(C(=O)OC)c2Cl)c1O` [Comp'd A, reference compound] was tested. Which “Herbicidal efficacy (E): velvetleaf” value [1] did it give?
**A.** 5 (0)

**Q.** And the “Herbicidal efficacy (F)” value [2]?
**A.** 3 (21-40)

**Q.** And the “Herbicidal efficacy (A): large crabgrass” value [3]?
**A.** 1 (61-80)

**Q.** And the “Herbicidal efficacy (B): barnyard grass” value [4]?
**A.** 2 (41-60)

**Q.** And the “Herbicidal efficacy (D): cocklebur” value [5]?
**A.** 1 (61-80)

**Q.** What about the “Herbicidal efficacy (C): green foxtail” value [6] of the same compound?
**A.** 4 (1-20)

**Q.** And the “Herbicidal Effficacy umbrella plant” value ([8]; dosage 1 g a.i./10 are)?
**A.** 0 (81-100)

**Q.** What about the “Herbicidal Effficacy umbrella plant” value ([8]; dosage 3 g a.i./10 are) of the same compound?
**A.** 4 (1-20)

**Q.** What about the “Herbicidal Effficacy barnyard grass” value ([9]; dosage 1 g a.i./10 are) of the same compound?
**A.** 1 (61-80)

**Q.** And the “Herbicidal Effficacy barnyard grass” value ([9]; dosage 3 g a.i./10 are)?
**A.** 4 (1-20)

**Q.** What about the “Phytotoxicity to paddy rice” value ([10]; dosage 1 g a.i./10 are) of the same compound?
**A.** 0 (100)

**Q.** What about the “Phytotoxicity to paddy rice” value ([10]; dosage 3 g a.i./10 are) of the same compound?
**A.** 4 (0-79)

**Q.** And the Phyto-toxicity to corn [11]?
**A.** 0 (100)

**Q.** And the Herbicidal Efficacy velvetleaf [12]?
**A.** 5 (0)

**Q.** What about the “Herbicidal Efficacy slender amaranth” value [13] of the same compound?
**A.** 3 (21-40)

**Q.** What about the “Herbicidal Efficacy large crabgrass” value [14] of the same compound?
**A.** 1 (61-80)

**Q.** And the “Herbicidal Efficacy barnyard grass” value [15]?
**A.** 2 (41-60)

**Q.** What about the Herbicidal Efficacy cocklebur [16] of the same compound?
**A.** 1 (61-80)

**Q.** What about the “Herbicidal Efficacy green foxtail” value [17] of the same compound?
**A.** 4 (1-20)

**Q.** What about the Phytotoxicity to corn [7] of the same compound?
**A.** 0 (100)

**Q.** `CCCS(=O)(=O)Oc1c(C(=O)c2cc(C)c3c(c2C)C(C)(C)CCS3(=O)=O)c(C)nn1C` [Compound 30, 4,4,5,8-tetramethyl-6-(1,3-dimethyl-5-n-propanesulfonyloxypyrazol-4-yl)carbonylthiochroman-1,1-dioxide] was tested. Which “Herbicidal efficacy (E): velvetleaf” value [1] did it give?
**A.** 5 (0)

**Q.** And the “Herbicidal efficacy (F)” value [2]?
**A.** 5 (0)

**Q.** What about the “Herbicidal efficacy (A): large crabgrass” value [3] of the same compound?
**A.** 5 (0)

**Q.** And the “Herbicidal efficacy (B): barnyard grass” value [4]?
**A.** 4 (1-20)

**Q.** And the “Herbicidal efficacy (D): cocklebur” value [5]?
**A.** 1 (61-80)

**Q.** What about the “Herbicidal efficacy (C): green foxtail” value [6] of the same compound?
**A.** 3 (21-40)

**Q.** And the Phytotoxicity to corn [7]?
**A.** 0 (100)
